Laboratory results published in PubChem BioAssay AID1996.
≈ marks a conversion by molar mass, not a printed value.

Conditions: buffer; pH 7.4; 200.0 µM

Question: Which solubility kinetic does the source give for `Nc1nc2nc(-c3ccccc3)cc(C(F)(F)F)c2s1` here?
Answer: Its solubility kinetic is 4.1 µg/mL (≈ 13.9 µM).

Question: Which solubility kinetic does the source give for `CCC(Sc1ncccc1Nc1ccccn1)C(=O)O` (stereo not given) here?
Answer: The solubility kinetic was over 43.4 µg/mL.

Question: With `Cc1ccc2c(c1)[nH]c1c(=O)n(Cc3ccco3)cnc12` as the compound, how does the solubility kinetic read?
Answer: The solubility kinetic was 0.5 µg/mL (≈ 1.79 µM).

Question: With `CN(C(=O)c1ccc(Br)o1)C1(C)CCS(=O)(=O)C1` (stereo not given) as the compound, how does the solubility kinetic read?
Answer: The solubility kinetic was over 50.4 µg/mL.

Question: For `CNc1nc(N)c([N+](=O)[O-])c(Nc2cccc(Cl)c2)n1`, which solubility kinetic is on record?
Answer: The solubility kinetic was 0.4 µg/mL (≈ 1.36 µM).

Question: For `CCOC(=O)CC1COc2ccccc2N1C(=O)c1ccc(F)cc1` (stereo not given), which solubility kinetic is on record?
Answer: Its solubility kinetic is 47 µg/mL (≈ 137 µM).

Question: Which solubility kinetic does the source give for `Cc1ccc(C)c(Nc2c([N+](=O)[O-])c(=O)oc3ccccc23)c1` here?
Answer: The solubility kinetic was 2.4 µg/mL (≈ 7.73 µM).

Question: For `COCCCNC(=S)Nc1ccc(OC(F)F)cc1C`, which solubility kinetic is on record?
Answer: The solubility kinetic was 45.1 µg/mL (≈ 148 µM).

Question: For `CC(C)CCNC(=O)C1c2ccccc2Oc2ccccc21`, which solubility kinetic is on record?
Answer: Its solubility kinetic is under 0.6 µg/mL.

Question: For `Cc1ccc(NC(=O)CNC(=O)c2ccc(C)s2)nc1`, which solubility kinetic is on record?
Answer: The solubility kinetic was over 43.4 µg/mL.

Question: For `Brc1ccccc1C1Nc2cccc3cccc(c23)N1`, which solubility kinetic is on record?
Answer: Its solubility kinetic is 2.8 µg/mL (≈ 8.61 µM).

Question: Which solubility kinetic does the source give for `COc1ccc(-c2csc(NC3CCCCC3)n2)c(OC)c1` here?
Answer: Its solubility kinetic is 10.3 µg/mL (≈ 32.3 µM).

Question: For `Cc1cc(C)cc(N(CC(=O)N2CCCCCC2)S(C)(=O)=O)c1`, which solubility kinetic is on record?
Answer: Its solubility kinetic is 48.5 µg/mL (≈ 143 µM).

Question: For `CC(Sc1nnc2n1CCCCC2)C(=O)Nc1ccccc1[N+](=O)[O-]` (stereo not given), which solubility kinetic is on record?
Answer: Its solubility kinetic is over 54.2 µg/mL.

Question: For `Cn1c(N)c(C(=O)COC(=O)c2cccc(S(=O)(=O)NCc3ccccc3)c2)c(=O)n(C)c1=O`, which solubility kinetic is on record?
Answer: Its solubility kinetic is 17.6 µg/mL (≈ 36.2 µM).

Question: Which solubility kinetic does the source give for `CCOC(=O)COc1ccccc1/C=C1\NC(=O)NC1=O` here?
Answer: The solubility kinetic was 33 µg/mL (≈ 114 µM).

Question: With `Cc1ccccc1N1C(=O)C2CCCN2C1=S` (stereo not given) as the compound, how does the solubility kinetic read?
Answer: The solubility kinetic was over 36.9 µg/mL.

Question: For `Cc1ccc(C)c(-n2c(C)nc3ccccc3c2=O)c1`, which solubility kinetic is on record?
Answer: The solubility kinetic was over 39.6 µg/mL.

Question: With `COc1ccc(CCNC(=O)c2cc3c(C)nccc3[nH]c2=O)cc1OC` as the compound, how does the solubility kinetic read?
Answer: The solubility kinetic was 17.1 µg/mL (≈ 46.5 µM).

Question: For `O=C(O)C(=O)O.c1ccc(OCCN2CCOCC2)cc1`, which solubility kinetic is on record?
Answer: The solubility kinetic was over 44.6 µg/mL.

Question: For `CC(NC(=O)c1cccs1)c1ccccc1` (stereo not given), which solubility kinetic is on record?
Answer: The solubility kinetic was over 34.7 µg/mL.

Question: Which solubility kinetic does the source give for `COc1ccc(OCCn2cnc(Cl)c2Cl)cc1` here?
Answer: Its solubility kinetic is 41.1 µg/mL (≈ 143 µM).

Question: Which solubility kinetic does the source give for `COC(=O)Cc1c(O)ccn(Cc2ccc(OC)c(OC)c2)c1=O` here?
Answer: Its solubility kinetic is over 50 µg/mL.

Question: Which solubility kinetic does the source give for `Cc1ccc(S(=O)(=O)N(C)C)cc1NC(=O)CN1CCCC1` here?
Answer: Its solubility kinetic is over 48.8 µg/mL.

Question: Which solubility kinetic does the source give for `O=C(OCC(=O)c1cccs1)c1ccc([N+](=O)[O-])o1` here?
Answer: Its solubility kinetic is 16.4 µg/mL (≈ 58.3 µM).

Question: With `COc1cc([N+](=O)[O-])ccc1NC(=O)CSc1ccccn1` as the compound, how does the solubility kinetic read?
Answer: Its solubility kinetic is 0.5 µg/mL (≈ 1.57 µM).

Question: With `O=C(CN1CCN(c2ccc([N+](=O)[O-])cc2Cl)CC1)N1CCOCC1` as the compound, how does the solubility kinetic read?
Answer: The solubility kinetic was 54.9 µg/mL (≈ 149 µM).

Question: For `OCCN1CCN(C(=S)Nc2ccc(SC(F)F)cc2)CC1`, which solubility kinetic is on record?
Answer: Its solubility kinetic is over 52.1 µg/mL.

Question: With `Cc1ccc(-c2c[n+](=O)c3c(n2[O-])CCC3)cc1` as the compound, how does the solubility kinetic read?
Answer: Its solubility kinetic is over 36.3 µg/mL.

Question: With `CSc1ccc(CN2CCC(Cc3ccccc3)CC2)cc1` as the compound, how does the solubility kinetic read?
Answer: Its solubility kinetic is 17.7 µg/mL (≈ 56.8 µM).

Question: With `CC(=O)C1C(=O)c2c(cccc2[N+](=O)[O-])C1=Nc1cccc(Cl)c1` (stereo not given) as the compound, how does the solubility kinetic read?
Answer: The solubility kinetic was 1.6 µg/mL (≈ 4.67 µM).

Question: For `Cc1ccc(CNC(=S)Nc2cc(C)ccc2OC(F)F)cc1`, which solubility kinetic is on record?
Answer: Its solubility kinetic is 4.7 µg/mL (≈ 14 µM).

Question: For `NC(=O)c1cc(S(=O)(=O)NCCc2ccccc2)cs1`, which solubility kinetic is on record?
Answer: Its solubility kinetic is 40.3 µg/mL (≈ 130 µM).

Question: For `CCOC(=O)/C(C#N)=C1\CC2CCC1(C)C2(C)C` (stereo not given), which solubility kinetic is on record?
Answer: Its solubility kinetic is 1.7 µg/mL (≈ 6.87 µM).

Question: For `COc1ccccc1-n1c(C)c(C(C)=O)c2cc(O)ccc21`, which solubility kinetic is on record?
Answer: The solubility kinetic was 3 µg/mL (≈ 10.2 µM).

Question: With `CC(=NCCN(C)C)c1c(O)n(Cc2ccccc2)c(=O)[nH]c1=O` as the compound, how does the solubility kinetic read?
Answer: Its solubility kinetic is over 49.6 µg/mL.

Question: Which solubility kinetic does the source give for `Fc1cccc(/C=N/Nc2nccnc2Cl)c1` here?
Answer: The solubility kinetic was over 37.6 µg/mL.

Question: Which solubility kinetic does the source give for `O=C(CCn1c(=O)oc2ccccc21)NCCC1=CCCCC1` here?
Answer: The solubility kinetic was over 47.2 µg/mL.

Question: With `CC(=O)c1c(-c2ccc(Cl)cc2Cl)noc1C` as the compound, how does the solubility kinetic read?
Answer: Its solubility kinetic is 17.5 µg/mL (≈ 64.8 µM).

Question: For `CCNc1nc(NCC)nc(N(C#N)C(C)C)n1`, which solubility kinetic is on record?
Answer: The solubility kinetic was over 37.4 µg/mL.

Question: For `COc1ccccc1C(=O)NCCCCNC(=O)c1ccccc1OC`, which solubility kinetic is on record?
Answer: The solubility kinetic was over 53.5 µg/mL.

Question: Which solubility kinetic does the source give for `O=C(CNC1CCCCC1)Nc1cccc(C(F)(F)F)c1` here?
Answer: The solubility kinetic was over 45 µg/mL.

Question: For `Cc1nc(C)c(C(=O)O)c(-c2cccs2)c1C(=O)O`, which solubility kinetic is on record?
Answer: The solubility kinetic was over 41.6 µg/mL.

Question: Which solubility kinetic does the source give for `CCOC(=O)C(Nc1ccc2ccccc2c1)C(=O)OCC` here?
Answer: The solubility kinetic was over 45.2 µg/mL.

Question: For `CN(C1CCCCC1)S(=O)(=O)c1ccc(=S)[nH]c1`, which solubility kinetic is on record?
Answer: The solubility kinetic was 22.8 µg/mL (≈ 79.6 µM).

Question: With `COc1cccc2cc(/C(=N/O)c3ccc(Br)cc3)oc12` as the compound, how does the solubility kinetic read?
Answer: The solubility kinetic was under 0.7 µg/mL.

Question: Which solubility kinetic does the source give for `O=C(Nc1ccc(Cl)cc1)C1CCN(C(=O)c2ccco2)CC1` here?
Answer: The solubility kinetic was over 49.9 µg/mL.

Question: Which solubility kinetic does the source give for `NC(=O)COC(=O)c1sc2cc(F)ccc2c1Cl` here?
Answer: The solubility kinetic was 6.3 µg/mL (≈ 21.9 µM).

Question: Which solubility kinetic does the source give for `O=C(Cc1cccs1)NC1CCCC1` here?
Answer: The solubility kinetic was over 31.4 µg/mL.

Question: Which solubility kinetic does the source give for `Cc1ccc2cc(/C=C/C(=O)c3ccco3)c(Cl)nc2c1` here?
Answer: The solubility kinetic was 3.2 µg/mL (≈ 10.7 µM).

Question: For `OCCNC(=S)c1ccccc1`, which solubility kinetic is on record?
Answer: The solubility kinetic was 25.7 µg/mL (≈ 142 µM).

Question: For `CSc1ccc(/C=C/C(=O)N2CCN(c3ccccn3)CC2)cc1`, which solubility kinetic is on record?
Answer: Its solubility kinetic is 2.3 µg/mL (≈ 6.78 µM).

Question: For `CC(C)c1ccc(NS(=O)(=O)c2cccc3cccnc23)cc1`, which solubility kinetic is on record?
Answer: The solubility kinetic was under 0.3 µg/mL.

Question: For `COCCCNC(=O)c1ccccc1-c1cc(C)no1`, which solubility kinetic is on record?
Answer: The solubility kinetic was 32.6 µg/mL (≈ 119 µM).

Question: Which solubility kinetic does the source give for `COc1ccc2[nH]c(C)c(-c3csc(N)n3)c2c1` here?
Answer: The solubility kinetic was 31.3 µg/mL (≈ 121 µM).

Question: With `CC1(C)CC(NC2C3CC4CC(C3)CC2C4)CC(C)(C)N1.Cl` (stereo not given) as the compound, how does the solubility kinetic read?
Answer: Its solubility kinetic is over 54.5 µg/mL.

Question: With `COc1cc(C)c(CN2CCC(Cc3ccccc3)CC2)cc1C` as the compound, how does the solubility kinetic read?
Answer: The solubility kinetic was 26.4 µg/mL (≈ 81.6 µM).

Question: With `Cc1cccc(-c2noc(CN(C)C(=O)COc3ccccc3)n2)c1` as the compound, how does the solubility kinetic read?
Answer: The solubility kinetic was 36.9 µg/mL (≈ 109 µM).

Question: For `O=C(c1ccc([N+](=O)[O-])cc1)N1CCN(C(=O)c2ccco2)CC1`, which solubility kinetic is on record?
Answer: Its solubility kinetic is over 49.4 µg/mL.

Question: For `COc1ccccc1NC(=O)Nc1cccc(C)n1`, which solubility kinetic is on record?
Answer: The solubility kinetic was 0.4 µg/mL (≈ 1.55 µM).
